Test results from PubChem BioAssay (NCI).
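Cells were grown in 96-well plates and exposed to each compound for 48 hours at five concentrations; endpoints were interpolated linearly between bracketing concentrations, or set to the highest concentration if not reached. TGI is the concentration that stops growth completely.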

What was measured:
Assay in all cases: growth of human tumour cells (NCI), 48 h
[1] = tested on: OVCAR-3 ovarian
[2] = tested on: SF-295 CNS
[3] = tested on: SK-MEL-2 melanoma
[4] = tested on: NCI-H460 lung
[5] = tested on: DU-145 prostate
[6] = tested on: SF-268 CNS
[7] = tested on: RXF 393 renal
[8] = tested on: PC-3 prostate
[9] = tested on: SK-MEL-5 melanoma
[10] = tested on: A549 NSCLC

SMILES: Nc1c2c(nc3ccccc13)CCCc1ccccc1-2
- TGI [1]: > 100 µM
- TGI [2]: 24 µM
- TGI [3]: 27.1 µM
- TGI [4]: 14.5 µM
- TGI [5]: 80.3 µM
- TGI [6]: 38.4 µM
- TGI [7]: 24.7 µM
- TGI [8]: 40.5 µM
- TGI [9]: 21 µM
- TGI [10]: 49 µM

SMILES: CC[C@H]1C=CCC[C@@]2(C[C@@H]3CC[C@@H]4[C@H](C(=O)OCCCCCCCCCCCCCCCC(=O)N(CCCNC(C)=O)C[C@H](CCNC(C)=O)OC(C)=O)[C@]5(CCC[C@@H](C)O5)NC(=[N+]34)N2)O1
- TGI [1]: 2.03 µM
- TGI [2]: 1.46 µM
- TGI [3]: 0.338 µM
- TGI [4]: 1.14 µM
- TGI [5]: 1.59 µM
- TGI [6]: 1.14 µM
- TGI [7]: 1.02 µM
- TGI [8]: 1.18 µM
- TGI [9]: 0.647 µM
- TGI [10]: 1.36 µM

SMILES: CCN(CC)CCNC(=O)c1nn(-c2ccc(Cl)cc2)c2c1CCc1cc(OC)ccc1-2
- TGI [1]: 20.6 µM
- TGI [2]: 7.37 µM
- TGI [3]: 3.18 µM
- TGI [4]: 11.8 µM
- TGI [5]: 29.1 µM
- TGI [6]: 22.2 µM
- TGI [7]: 8.99 µM
- TGI [8]: 26.3 µM
- TGI [9]: 3.17 µM
- TGI [10]: 21.3 µM

SMILES: CC(=O)OC1OC(c2ccoc2)C[C@@]12C1CCC3O[C@]3(C)[C@]1(C)C[C@H](OC(C)=O)[C@H]2C (stereo not given in full)
- TGI [1]: > 75 µM
- TGI [2]: > 75 µM
- TGI [3]: > 75 µM
- TGI [4]: > 75 µM
- TGI [5]: > 75 µM
- TGI [6]: > 75 µM
- TGI [7]: > 75 µM
- TGI [8]: > 75 µM
- TGI [9]: > 75 µM
- TGI [10]: > 75 µM

SMILES: CC#CCCCC1(C)CCCNC1=S (stereo not given)
- TGI [1]: > 10 µM
- TGI [2]: > 10 µM
- TGI [3]: > 10 µM
- TGI [4]: > 10 µM
- TGI [5]: > 10 µM
- TGI [6]: > 10 µM
- TGI [7]: > 10 µM
- TGI [8]: > 10 µM
- TGI [9]: > 10 µM
- TGI [10]: > 10 µM

SMILES: O=[p+]1c2ccccc2[nH]c2ccccc21
- TGI [1]: > 100 µM
- TGI [2]: > 100 µM
- TGI [3]: > 100 µM
- TGI [4]: > 100 µM
- TGI [5]: > 100 µM
- TGI [6]: > 100 µM
- TGI [7]: > 100 µM
- TGI [8]: > 100 µM
- TGI [9]: > 100 µM
- TGI [10]: > 100 µM

SMILES: O=C1Nc2ccccc2/C1=C\c1c(Cl)nc2n1CCS2
- TGI [1]: 68.7 µM
- TGI [2]: 99.6 µM
- TGI [3]: 32.5 µM
- TGI [4]: 45.3 µM
- TGI [5]: > 100 µM
- TGI [6]: 94.8 µM
- TGI [7]: 57.3 µM
- TGI [8]: 80.4 µM
- TGI [9]: 29.4 µM
- TGI [10]: > 100 µM

SMILES: CNc1nc2c(C)ccc3[nH]c(N(C)C)nc3c-2n1
- TGI [1]: > 100 µM
- TGI [2]: > 100 µM
- TGI [3]: > 100 µM
- TGI [4]: > 100 µM
- TGI [5]: > 100 µM
- TGI [6]: > 100 µM
- TGI [7]: > 100 µM
- TGI [8]: > 100 µM
- TGI [9]: 50.3 µM
- TGI [10]: > 100 µM

SMILES: COc1ccc(-c2cc(-c3ccccc3)nc3c2CC(=O)Nc2ccccc2-3)cc1OC
- TGI [1]: > 100 µM
- TGI [2]: > 100 µM
- TGI [3]: > 100 µM
- TGI [4]: > 100 µM
- TGI [5]: > 100 µM
- TGI [6]: > 100 µM
- TGI [7]: > 46.3 µM
- TGI [8]: > 100 µM
- TGI [9]: > 100 µM
- TGI [10]: > 36.3 µM

SMILES: NC(=S)N/N=C1\CCCCC1C(O)(C(F)(F)Cl)C(F)(F)Cl (stereo not given)
- TGI [1]: > 10 µM
- TGI [2]: > 10 µM
- TGI [3]: > 10 µM
- TGI [4]: > 10 µM
- TGI [5]: > 10 µM
- TGI [6]: > 10 µM
- TGI [7]: > 10 µM
- TGI [8]: > 10 µM
- TGI [9]: > 10 µM
- TGI [10]: > 10 µM

SMILES: C/C(=C1\C(=O)C(c2ccccc2)N(c2ccccc2)C1=O)c1ccc(Cl)cc1 (stereo not given)
- TGI [1]: 30.6 µM
- TGI [2]: 74.9 µM
- TGI [3]: 45.4 µM
- TGI [4]: > 100 µM
- TGI [5]: 34 µM
- TGI [6]: 47 µM
- TGI [7]: 79.2 µM
- TGI [8]: 28.2 µM
- TGI [9]: 28.3 µM
- TGI [10]: 36.5 µM

SMILES: NC(C(=O)OC(=O)c1ccccc1)C(=O)OC(=O)c1ccccc1
- TGI [1]: > 100 µM
- TGI [2]: > 100 µM
- TGI [3]: > 100 µM
- TGI [4]: > 100 µM
- TGI [5]: > 100 µM
- TGI [6]: > 100 µM
- TGI [7]: > 100 µM
- TGI [8]: > 100 µM
- TGI [9]: > 100 µM
- TGI [10]: > 100 µM
